This is an account of results in patent US20110033418A1, “TREATMENT OF DISEASES CAUSED BY VIRAL INFECTION” (priority 2009, published 2011).

Assay [1] has as its system Ljungan virus (LV). Particulars: number of 7 mice; 200 mg per kg orally daily for 50 days from day 35; terminated at day 120.
Procedure: An ALS mouse model was used in which the mice are transgenic for superoxide dismutase 1 (SOD1). […] The inventors treated the LV infection in these mice using two different antiviral compounds separately and in combination. One group of mice was kept as a control.
Groups of seven 35 day old B6SJL-Tg-SOD1-G93 mice were treated with two antiviral compounds, Pleconaril and Ribavirin (200 mg of each per kg body weight), orally with a tube connected to a syringe daily for 50 consecutive days. Mice were observed every day for signs of paralysis.
The experiment was terminated at day 120 when all untreated animals were expected to have developed severe paralysis and death.
The next assay relates to LV. Kind of assay: Inhibitory effect on LV in tissue culture. The class given is cell-based. An excerpt: Antiviral agents Pleconaril (VP-63843) a novel, orally bio-available, broad spectrum anti-picorna-viral agent developed as a therapeutic tool in entero- and rhino viral infections, was used alone or in combination with specific antiserum for intervention.
In assay [2] the test system is Ljungan virus (LV). Kind of assay: Diabetes in male CD-1 mice infected with LV in utero and subjected to stress (glucose tolerance test, abdominal fat, serum insulin). It is filed as in vivo. Here is the method: Animals CD-1 (ICR) mice were obtained from Br Charles River laboratories, Germany. Glucose tolerance test was performed to diagnose diabetes. In this test 2 g glucose per kg body weight was injected intraperitoneally (as 100 mg glucose/ml solution). Blood glucose was measured (Medisence Precision PCx Abbott Laboratories) before the injection of glucose and after 60 and 120 min. Diabetes was defined as a blood glucose level above 200 mg/dL at 120 min. Abdominal fat in male mice was measured by dissecting out the bilateral scrotal fat cushion. The total weight of both fat cushions was used.
Analysis of insulin Serum insulin was measured using a rat insulin ELISA kit (Mercodia AB).
Transmission of LV to CD-1 mice followed by antiviral treatments Pregnant outbred CD1 mice were infected intraperitoneally with 1000 ID50 (determined by intra cerebral titration in suckling mice) units of LV145 SL two days after conception. Control animals were given an injection of saline. All female mice were kept in individual cages and followed for the development of gestational diabetes, pregnancy outcome and development of diabetes in the offspring. In all the pregnant mice mild stress was induced by adding glucose (100 g/L) to drinking water, performing weekly weights and a glucose tolerance test at the end of the pregnancy. At five weeks of age antiviral therapy to the male offsprings, using LV-specific murine antiserum or the oral antiviral compound Pleconaril (200 mg per kg body weight) or a combination of both, were given once a day for four consecutive days. The control groups of infected and uninfected male offsprings were untreated. From the age of 25 days all mice were subjected to stress by placing 4-5 male mice from different litters in the same cage. At 15 weeks of age the animals were subjected to a glucose tolerance test. Serum insulin levels and abdominal fat were measured.
Statistics The glucose tolerance test in the CD-1 mice was evaluated by Fisher's exact one sided test. Otherwise statistical significance in the CD-1 mice was evaluated by Student's t-test. P values <0.05 were considered significant. Data are presented as means±s.e.m.

Each structure is given as a SMILES string.

Take `Cc1cc(CCCOc2c(C)cc(-c3noc(C(F)(F)F)n3)cc2C)on1` [Pleconaril, (3-[3,5-dimethyl-4-[[3-(3-methyl-5-isoxazolyl)propyl]oxy]phenyl]-5-(trifluoromethyl)-1,2,4-oxadiazole)]: in the assay with Ljungan virus (LV) [1], the “Mice with paralysis (including death)” value came out at 5 and the Mice without paralysis is reported as 2. The “inhibitory effect on LV” value in the assay on LV was “some inhibitory effect on LV”. For the same compound, the “No. with blood glucose >200 mg/dL at 120 min (percent of group)” value in the assay on Ljungan virus (LV) [2] (glucose tolerance test at 15 weeks of age, LV infected, stressed male CD-1 mice) is on record as 9%. In the assay on Ljungan virus (LV) [2] (glucose tolerance test, 2 g glucose per kg i.p., means±s.e.m.), the “Blood glucose at 60 min” value came to 211 ± 23.8 mg/dL. In the assay with Ljungan virus (LV) [2] (number of mice, glucose tolerance test at 15 weeks of age, LV infected, stressed male CD-1 mice, treatment once a day for four days at five weeks of age), the “No. with blood glucose >200 mg/dL at 120 min” value is given as 1. In addition, the Serum insulin with Ljungan virus (LV) [2] (rat insulin ELISA, means±s.e.m.) was determined as 4.15 ± 1.52 µg/L. The Abdominal fat in the assay on Ljungan virus (LV) [2] (total weight of bilateral scrotal fat cushions, means±s.e.m.) came out at 2.1 ± 0.31 g.

`NC(=O)c1ncn([C@@H]2O[C@H](CO)[C@@H](O)[C@H]2O)n1` [Ribavirin, 1-[(2R,3R,4S,5R)-3,4-dihydroxy-5-(hydroxymethyl)oxolan-2-yl]-1H-1,2,4-triazole-3-carboxamide]: in the assay with Ljungan virus (LV) [1], the “Mice with paralysis (including death)” value is listed as 6 and the Mice without paralysis is reported as 1.
